# Laboratory results as given in patent US9243281B2, “Neuroprotective chemicals and methods for identifying and using same” (Board of Regents of The University of Texas System, priority 2013, dated 2016).
# What was measured:
# [1] = tested on: hippocampal neurogenesis (Dentate Gyrus); experiment: in vivo neurogenesis assay (BrdU+ cells in dentate gyrus); parameters: species or system mice; details: living mice; vehicle (DMSO) 7.3
# Excerpt: The screen was simple in concept. With help from chemists in the Department of Biochemistry at UTSWMC, we selected 1,000 druglike chemicals from the 250,000 compounds in our high throughput screening center. The compounds were selected to preserve representative chemical diversity of the entire library. They were further selected to enhance the representation of chiral molecules, and to avoid untoward chemical properties such as reactive moieties. The 1,000 molecules were randomly pooled into groups of ten, and each pool was administered directly into the left ventricle of two adult mice. Intracranial delivery was facilitated by stereotactic positioning of a canula fed directly by an Alzet mini-pump containing the mixture of ten chemicals. The drug mixture was administered over a week-long period at concentrations anticipated to deliver mid-nanomolar levels of the ten test compounds. Daily injections of the thymidine analog, bromodeoxyuridine (BrdU), were coadministered in order to monitor the formation of new hippocampal nerve cells. Following compound administration, animals were sacrificed such that brain tissue could be recovered, sectioned and stained with antibodies to BrdU. […]
# [2] = molecular target: T1, p70 (NAMPT) (Homo sapiens, UniProt P43490); experiment: binding competition for photo-crosslinking of P7C3-S326 to p70 in H2122 cells; details: 0.3 μM P7C3-S326 plus 5 μM competitor, p70 band intensity, P7C3-S326 alone compared with plus competitor, vehicle 1.0
# T1 construct: endogenous in cells; host or cells: H2122 lung cancer cells
# Method: Cultured cells were co-exposed to P7C3-S326 (0.3 uM) and the individual P7C3 variants (5 uM), exposed to UV light, lysed, clicked to a fluorescent dye and run on SDS gels (FIG. 11).
# P7C3-S326 was diluted to 0.3 μM in culture medium to treat H2122 cells. After incubation at 37° C. for 2 hours, H2122 cells were irradiated for 15 minutes under 306 nm ultraviolet light in a Stratalinker 2400 (Stratagene). Cells were then harvested by dissolving in 1% SDS lysis buffer 50 mM HEPES, pH 8.0, 2 mM MgCl2, 10 mM KCl, 1% SDS, 50 units/ml of Benzonase (Sigma), supplemented with Sigmafast protease inhibitor (Sigma).
# The reaction was incubated at room temperature with constant agitation at 1,000 rpm on a thermomixer (Eppendorf) for 1 hour. Samples were then mixed with SDS sample loading buffer and loaded on an 8% SDS-PAGE gel, separated, and imaged using a Typhoon imager (filter settings: excitation 533 nm, emission 555 nm, and high sensitivity).
# H2122 cells were incubated with the P7C3-S326 (0.3 μM) in the absence or presence of P7C3 analogs for 2 hours following by UV crosslinking. […] The samples were run on SDS-PAGE gels scanned using a Typhoon Imager. The p70 band intensity was analyzed and quantified by Image J, and the relative intensity in each assay was normalized to that of the DMSO control.
# T1 sequence (P43490 whole entry): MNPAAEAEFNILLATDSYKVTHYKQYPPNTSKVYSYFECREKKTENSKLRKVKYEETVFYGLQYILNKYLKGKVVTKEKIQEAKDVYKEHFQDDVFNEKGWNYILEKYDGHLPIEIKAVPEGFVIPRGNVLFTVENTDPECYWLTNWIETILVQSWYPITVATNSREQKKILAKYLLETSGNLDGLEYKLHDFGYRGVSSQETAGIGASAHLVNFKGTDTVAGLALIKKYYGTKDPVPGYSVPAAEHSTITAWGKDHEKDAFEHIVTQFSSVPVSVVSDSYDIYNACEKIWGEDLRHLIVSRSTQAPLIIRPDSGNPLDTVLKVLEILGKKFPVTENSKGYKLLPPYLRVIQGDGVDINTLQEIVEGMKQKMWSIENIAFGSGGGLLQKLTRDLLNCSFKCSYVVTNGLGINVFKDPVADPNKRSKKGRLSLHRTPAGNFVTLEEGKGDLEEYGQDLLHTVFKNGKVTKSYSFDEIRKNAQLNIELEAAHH
SMILES,Neurogenesis # BrdU+ Cells (X10E06)/mm3 Dentate Gyrus [1],Binding competition [2]
CNC(=O)Cn1c2ccc(Br)cc2c2cc(Br)ccc21 [S214],9.9 (X10E06)/mm3,1.7
COc1cccc(NC(=O)C(O)Cn2c3ccc(Br)cc3c3cc(Br)ccc32)c1 (stereo not shown) [S31],10.4 (X10E06)/mm3,6.2
CN1CCc2c(c3cc(Br)ccc3n2CC(O)COc2ccccc2)C1 (stereo not shown) [S131],7.3 (X10E06)/mm3,3.5
COc1cccc(N(CC(O)Cn2c3ccc(Br)cc3c3cc(Br)ccc32)S(=O)(=O)C(F)(F)F)c1 (stereo not shown) [S244],11.6 (X10E06)/mm3,1.1
"CN(C)CCC=C1c2ccccc2CCc2ccccc21.Cl [S86, Amitriptyline, reference compound]",9.7 (X10E06)/mm3,1.3
CC(=O)NCCOCC(O)Cn1c2ccc(Br)cc2c2cc(Br)ccc21 (stereo not shown) [S43],11.7 (X10E06)/mm3,1.7
OC(CN1c2ccccc2CCc2ccccc21)CN1c2ccccc2CCc2ccccc21 [S170],11.2 (X10E06)/mm3,1.5
COc1cccc(S(=O)(=O)CC(O)Cn2c3ccc(Br)cc3c3cc(Br)ccc32)c1 (stereo not shown) [S82],11.8 (X10E06)/mm3,2.3
CN(C)C[C@H](O)CN1c2ccccc2CCc2ccccc21 [S181],–,0.9
"CN(C)CCCN1c2ccccc2CCc2ccccc21.Cl [S88, Imipramine, reference compound]",7.8 (X10E06)/mm3,–
OC(CCn1c2ccc(Br)cc2c2cc(Br)ccc21)CNc1ccccc1 (stereo not shown) [S26],7.5 (X10E06)/mm3,–
CC(C)(C)OC(=O)CCOCCOCCOCCOc1ccc(S(=O)(=O)CC(O)Cn2c3ccc(Br)cc3c3cc(Br)ccc32)cc1 (stereo not shown) [S130],–,2.9
"Fc1ccc([C@@H]2CCNC[C@H]2COc2ccc3c(c2)OCO3)cc1 [S120, Paxil, reference compound]",–,1.3
Brc1ccc2c(c1)c1cc(Br)ccc1n2CCNc1ccccc1 [S115],–,3.7
Cn1c2ccc(Br)cc2c2cc(Br)ccc21 [S163],–,2.5
COc1ccc(OCC2(Cn3c4ccc(Br)cc4c4cc(Br)ccc43)NN2)cc1 [S57],11.9 (X10E06)/mm3,–
OC(CNc1cccc2ccccc12)Cn1c2ccccc2c2ccccc21 (stereo not shown) [S180],–,3.2
C#Cc1ccc2c(c1)c1cc(C#C)ccc1n2CC(O)CNc1cccc(OC)c1 (stereo not shown) [S64],8.6 (X10E06)/mm3,–
FC(CNc1ccccc1)Cn1c2ccc(Br)cc2c2cc(Br)ccc21 (stereo not shown) [S55],13.8 (X10E06)/mm3,–
O=C(Cn1c2ccc(Br)cc2c2cc(Br)ccc21)Nc1ccccc1 [S112],–,1.2
Brc1ccc2[nH]c3ccc(Br)cc3c2c1 [S162],–,2.3
OC(CNc1ccccc1)Cn1c2ccc(C(F)(F)F)cc2c2cc(C(F)(F)F)ccc21 (stereo not shown) [S75],–,2.5
OC(CNC1CCCC1)Cn1c2ccc(Br)cc2c2cc(Br)ccc21 (stereo not shown) [S176],–,4.1
O=C(O)Cn1c2ccc(Br)cc2c2cc(Br)ccc21 [S165],–,1.3
COc1cccc(N(C)CC(O)Cn2c3ccc(Br)cc3c3cc(Br)ccc32)c1 (stereo not shown) [S1],10.8 (X10E06)/mm3,–
OC(Cn1c2ccccc2c2ccccc21)Cn1c2ccc(Br)cc2c2cc(Br)ccc21 (stereo not shown) [S35],8.6 (X10E06)/mm3,–
O=C(COc1cccc(S(=O)(=O)CC(O)Cn2c3ccc(Br)cc3c3cc(Br)ccc32)c1)NCc1ccccc1 (stereo not shown) [S102],8.9 (X10E06)/mm3,–
"CC(NC(C)(C)C)C(=O)c1cccc(Cl)c1 (stereo not shown) [S125, Wellbutrin, reference compound]",–,1.1
COc1ccc(OCC(O)Cn2c3ccc(Br)cc3c3cc(Br)ccc32)cc1 (stereo not shown) [S49],12.0 (X10E06)/mm3,–
